Drawing on article PMC12148380 (iScience, 2025), this text covers Kd for 3 compounds.

A word on the Kd: it is the constant that tells how readily two partners part at equilibrium.

Assay in all cases: microscale thermophoresis
Type in all cases: binding
(MST reads how a fluorescent partner responds to local heating, with and without ligand.)

One assay concerns the target T1, FabF (Escherichia coli, UniProt P0AAI5).
T1 sequence (P0AAI5 2-413): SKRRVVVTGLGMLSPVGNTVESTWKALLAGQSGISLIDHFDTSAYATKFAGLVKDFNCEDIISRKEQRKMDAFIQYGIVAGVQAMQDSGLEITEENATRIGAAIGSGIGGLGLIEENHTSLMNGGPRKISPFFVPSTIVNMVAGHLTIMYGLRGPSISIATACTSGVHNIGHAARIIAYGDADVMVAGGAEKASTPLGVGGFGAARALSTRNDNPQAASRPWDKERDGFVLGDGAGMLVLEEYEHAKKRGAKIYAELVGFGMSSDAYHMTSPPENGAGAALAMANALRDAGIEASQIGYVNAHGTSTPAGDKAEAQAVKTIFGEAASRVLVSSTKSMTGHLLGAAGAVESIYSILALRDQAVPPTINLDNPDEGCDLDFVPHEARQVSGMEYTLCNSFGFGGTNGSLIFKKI

The target in assay [1] is T2, orotate phosphoribosyltransferase (PyrE) (Escherichia coli, UniProt P0A7E3).
T2 sequence (P0A7E3 2-213): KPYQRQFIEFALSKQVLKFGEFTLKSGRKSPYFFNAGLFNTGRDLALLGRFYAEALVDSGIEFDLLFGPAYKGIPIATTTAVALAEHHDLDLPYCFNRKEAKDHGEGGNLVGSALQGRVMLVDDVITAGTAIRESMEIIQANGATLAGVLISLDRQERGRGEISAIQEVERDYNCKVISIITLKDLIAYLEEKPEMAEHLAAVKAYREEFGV

The target of assay [2] is T2, orotate phosphoribosyltransferase (PyrE). This is another data set of the same source.

Like-named read-outs stand apart in the source and are kept apart here. Where a SMILES comes first, the peptide text is derived from it.

`CC(C)CC(NC(=O)C(N)C(C)C)C(=O)O` (stereo not drawn) [Val-Leu] (H-Val-Leu-OH; configuration not given here) had a dissociation constant (Kd) on FabF of 12 to 14 µM.
`Cc1cc2nc3[nH]c(=O)[nH]c(=O)c3nc2cc1C` [lumichrome] yielded a Kd in assay [1] of 90.3 µM.
The compound `O=P(O)(O)OC[C@H]1O[C@H](OP(=O)(O)OP(=O)(O)O)[C@H](O)[C@@H]1O` [PRPP] had a Kd in assay [2] of 8.21 µM.
